What is called IC50 is the concentration needed to halve the response being measured.

One assay concerns the target PRMT5/MEP50 complex (Homo sapiens (Human), UniProt O14744). In words: Biochemical assay: PRMT5/MEP50 methylation of histone H4 based AcH4-23, SPA readout. Conditions: PRMT5/MEP50 2.5 nM, 300 nM AcH4-23, 1 μM 3H-SAM. The method, boiled down:
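PRMT5/MEP50 (2.5 nM final) preincubated with compound 20 min at 37°C alongside 300 nM AcH4-23 peptide. Reaction started with 1 µM [3H-methyl]-SAM, run 30 min at 37°C and quenched with guanidine HCl. Streptavidin SPA beads, scintillation counting; IC50 from four-parameter Hill fit.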

Assay [1] concerns sDMA marks (SmD3me2s) in U-87 MG cells. In words: Western blotting for symmetric di-methyl arginine (sDMA) marks in U-87 MG cells. The class given is cell-based. As to conditions: Homo sapiens, 72 h; U-87 MG cell line, 3 days. On the procedure: Cell Treatment and Western Blotting for Detecting Symmetric Di-Methyl Arginine (sDMA) Marks
Compound Titration and Cell Culture:
Compounds were dissolved in DMSO to make 10 mM stock and 3-fold series dilutions were further conducted to make working stocks top at 1 mM. Granta-519 cells were maintained in PRMI 1640 (Corning Cellgro, Catalog #: 10-040-CV) supplemented with 10% v/v FBS (GE Healthcare, Catalog #: SH30910.03) and U-87 MG cells were maintained in DMEM (Corning Cellgro, Catalog #: 10-013-CV) with 10% FBS and 2 mM Glutamin (Corning Cellgro, Catalog #25005CV).
To determine enzyme inhibition IC50 values in Granta-519 and U-87 MG cells using Western Blot analysis. One day before experiment, Granta-519 cells were passaged to a density of 0.5×10^6 cells/ml. U-87 MG cells were trypsinized and 4×10^5 cells were seeded into 6-well plates and allow to grow overnight. The next day, Granta-519 cells were spun down at 1,500 rpm for 4 min, resuspend in fresh medium at 0.5×10^6 cells/ml and 3 mL of culture (1.5×10^6 cells) were seeded into 6 well plate. Eight-point, 3-fold serial dilutions of compound working stocks were added to cells (3 ul, 1:1,000 dilution, DMSO concentration was 0.1%; final top concentration at 1 uM) and incubated for 3 days. Cells incubated with DMSO was used as a vehicle control.
Cells were harvested 3 days later, resuspended in 15 uL PBS, lysed in 4% SDS, and homogenized by passing through homogenizer column (Omega Biotek, Catalog #: HCR003). Total protein concentrations were determined by BCA assay (ThermoFisher Scientific, Catalog #: 23225). Lysates were mixed with 5× Laemmli buffer and boiled for 5 min. Forty ug of total protein was separated on SDS-PAGE gels (Bio-Rad, catalog #: 4568083, 4568043), transferred to PVDF membrane, blocked with 5% dry milk (Bio-Rad, Catalog #: 1706404) in TBS with 0.1% v/v Tween 20 (TBST) for 1 hour at room temperature (RT), and incubated with primary antibodies (sDMA: Cell signaling, Catalog #: 13222, 1:3,000; β-Actin: sigma, Catalog #: 1:5,000) in 5% dry milk in TBST at 4° C. overnight. The next day, membranes were washed with TBST, 5×5 min, and incubated with HRP conjugated seconded antibody (GE Healthcare; Catalog #: NA934-1ML, NA931-1ML; 1:5,000) for 2 hours at RT, followed by 5×5 min washes with TBST, and incubation with ECL substrates (Bio-Rad, Catalog #: 1705061, 1705062). Chemiluminescent signal was captured with Fluochem HD2 imager (Proteinsimple). SmD3me2s bands were quantified by ImageJ. Signals were normalized to β-Actin and DMSO control. IC50 values were calculated using Graphpad Prism ([Inhibitor] vs. normalized response-Variable slope).
For orientation: In western blotting, separated proteins are transferred to a membrane and probed.

The test system of assay [2] is γ-globin expression in erythroid progenitors. In words: γ-globin induction by quantitative PCR in human erythroid progenitor cells. The class given is cell-based. Conditions: 9 days of treatment, N=1. On the procedure: Compounds were dissolved in DMSO to make 10 mM stock solutions, and further diluted to make 1 mM and 0.1 mM stocks.
(§1) Human erythroid progenitor cells were generated from purified CD34+ cells from mobilized peripheral blood purchased from AllCells. CD34+ cells were cultured in StemSpan SFEM II (StemCell Technologies, Catalog #09605) supplemented with 100 ng/ml FLT3 ligand (R&D systems, Catalog #308-FK), 100 ng/ml SCF (R&D systems, Catalog #255-SC), 20 ng/ml IL-3 (R&D systems, Catalog #203-IL), 20 ng/ml IL-6 (R&D systems, Catalog #206-IL) for 6 days, then reseeded into the same medium supplemented with 20 ng/ml SCF, 5 ng/ml IL-3, 1 U/ml EPO (R&D systems, Catalog #287-TC), 2 μM dexamethasone (Sigma-Aldrich, Catalog # D4902), 1 μM β-estradiol (Sigma-Aldrich, Catalog # E2758). Cells were treated with 0.1 and 1 μM compound from Day 8 of differentiation. Media and compound were renewed every 3 days and cells were collected for RNA isolation after 9 days of treatment.
Assessment of γ-Globin Induction by Quantitative PCR
RNA was isolated using Quick-RNA Microprep kit (Zymo Research, Catalog # Z1050), cDNA was synthesized using qScript cDNA SuperMix (Quantabio, Catalog #95048). Quantitative PCR for y-globin was performed using PerfeCTa SYBR Green FastMix (Quantabio, Catalog #95071) on Bio-Rad CFX Connect Real-Time PCR Detection System. […]

Assay [3] has as its system fetal hemoglobin expressing erythroid cells (% F cells). In words: % F cells by flow cytometry in human erythroid cells. As to conditions: erythroid progenitors, Day 7 of treatment, N=1. The class given is cell-based. On the procedure: as §1
Assessment of % F Cells by Flow Cytometry
Human erythroid cells were collected on Day 7 of treatment with compound. Cells were fixed in 0.05% glutaraldehyde (Electron Microscopy Sciences, Catalog #16019), permeabilized with 0.1% Triton-X and stained with FITC-conjugated antibody directed to fetal hemoglobin (ThermoFisher, Catalog # MHFH01). Analysis of fetal hemoglobin expressing erythroid cells (% F cells) was performed on an Attune Nxt flow cytometer (ThermoFisher).

Sequence of PRMT5/MEP50 complex (O14744 whole entry): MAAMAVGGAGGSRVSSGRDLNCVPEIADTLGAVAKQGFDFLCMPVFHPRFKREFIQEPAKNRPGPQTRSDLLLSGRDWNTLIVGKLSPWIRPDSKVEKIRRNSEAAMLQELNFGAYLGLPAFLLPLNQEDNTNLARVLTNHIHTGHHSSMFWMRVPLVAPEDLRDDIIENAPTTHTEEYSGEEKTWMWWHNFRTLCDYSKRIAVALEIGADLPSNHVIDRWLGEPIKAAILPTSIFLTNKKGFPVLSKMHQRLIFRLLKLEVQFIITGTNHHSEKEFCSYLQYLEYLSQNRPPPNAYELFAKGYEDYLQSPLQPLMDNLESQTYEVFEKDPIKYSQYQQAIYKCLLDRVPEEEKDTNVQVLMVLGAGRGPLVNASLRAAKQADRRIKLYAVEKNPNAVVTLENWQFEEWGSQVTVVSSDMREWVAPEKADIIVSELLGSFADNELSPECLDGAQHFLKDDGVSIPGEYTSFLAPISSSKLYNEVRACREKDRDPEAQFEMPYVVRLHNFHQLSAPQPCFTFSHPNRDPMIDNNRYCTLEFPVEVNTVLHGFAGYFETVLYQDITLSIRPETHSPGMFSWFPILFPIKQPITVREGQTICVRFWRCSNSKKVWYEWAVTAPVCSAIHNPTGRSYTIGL
Sequence of PRMT5/MEP50 complex (Q9BQA1 whole entry partner): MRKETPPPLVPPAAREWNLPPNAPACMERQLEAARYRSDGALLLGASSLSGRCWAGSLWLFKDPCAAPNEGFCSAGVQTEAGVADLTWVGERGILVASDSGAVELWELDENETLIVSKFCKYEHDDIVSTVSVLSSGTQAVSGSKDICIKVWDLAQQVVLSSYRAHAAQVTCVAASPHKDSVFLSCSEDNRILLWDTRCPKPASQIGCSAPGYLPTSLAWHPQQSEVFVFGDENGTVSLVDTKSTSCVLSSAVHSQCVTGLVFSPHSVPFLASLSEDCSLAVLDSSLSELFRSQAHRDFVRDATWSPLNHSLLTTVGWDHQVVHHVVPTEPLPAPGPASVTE

In the case of `Nc1ncnc2c1ccn2[C@@H]1O[C@H]([C@@H]2OCc3ccc(Cl)cc32)[C@@H](O)[C@H]1O` [Example 5, (2R,3R,4S,5S)-2-(4-amino-7H-pyrrolo[2,3-d]pyrimidin-7-yl)-5-((R)-6-chloro-1,3-dihydroisobenzofuran-1-yl)tetrahydrofuran-3,4-diol], the IC50 was 1 nM against PRMT5/MEP50 complex and 25 nM in assay [1]. The “increase in expression of γ-globin” value was 1.5 fold in assay [2] (0.1 μM) and 2 fold in assay [2] (1 μM). Further, the entries for the “increase in % F cells compared to DMSO treated control” value in assay [3] (0.1 μM) and in assay [3] (1 μM) were 1.3 fold and 3 fold, respectively.

Source of the values: patent publication US10711007B2, “Selective inhibitors of protein arginine methyltransferase 5 (PRMT5)” (Prelude Therapeutics, Incorporated, priority 2018, dated 2020).
